Measured values as given in US20230220387A1, “D-SERINE TRANSPORT MODIFIER AND SCREENING METHOD THEREOF, AND SCREENING METHOD OF D-SERINE TRANSPORTER PROTEIN” (Kagami Inc., priority 2019, published 2023).
One block for each compound: values may come before it.

Legend:
HEK293 cells = experiment: [3H]D-serine transport in HEK293 cells; assay type: cell-based; details: endogenous ASCT2
Experimental: (§1) The cell lines HEK293 and Flp-In TREx 293 were cultured at 37° C. in a 5% CO2 environment, using Dulbecco's Modified Eagle Medium (DMEM) containing 10% fetal bovine serum (FBS), 100 units/ml Penicillin G and 100 μg/ml streptomycin (P/S). The cells were seeded in a Poly-D-lysine coated 24-well plate at 6×10^4 cells/well. After culturing for 3 days in DMEM Medium containing 10% FBS and P/S, the cell were used for transport activity measurement. Before transport activity measurement, the cells were washed with transport activity measurement buffer (PBS+1 g/L D-glucose) prewarmed to 37° C. and incubated for 10 minutes at 37° C. in 500 μL of buffer. The transport activity measurement was initiated by addition of D-[^3H]serine-containing transport activity buffer at the indicated concentration. The reaction product produced after addition was incubated at 37° C. for the indicated time. The reaction was suspended by removing the D-[^3H]serine-containing transport activity buffer, and the product was washed 3 times with thoroughly cooled transport activity buffer. The cells were dissolved with 500 μL of 0.1 N NaOH and incubated for at least one hour. Protein concentration of the cell lysate was measured by BCA protein assay. The lysate was mixed with 1 mL of Emulsifier Safe (PerkinElmer, MA, USA) and the radioactivity of the lysate was measured with a β-scintillation counter (LSC-8000, Hitachi). In transport activity measurement for Na^+, HBSS (+Na^+: 125 mM NaCl, −Na^+: choline chloride, 4.8 mM KCl, 1.2 mM MgSO4, 1.2 mM KH2PO4, 1.3 mM CaCl2), 5.6 mM D-glucose and 25 mM HEPES was used instead of PBS. For the inhibition experiment, a non-radioactive labeled compound was included as the uptake substrate as shown in the drawing.

ASCT2 = biological target: T1, ASCT2 (Homo sapiens, UniProt Q15758); experiment: [3H]D-serine transport in HEK293 cells transfected with ASCT2; assay type: cell-based
T1 construct: expressed in transfected cells; host or cells: HEK293 cells
T1 sequence (Q15758 1-541): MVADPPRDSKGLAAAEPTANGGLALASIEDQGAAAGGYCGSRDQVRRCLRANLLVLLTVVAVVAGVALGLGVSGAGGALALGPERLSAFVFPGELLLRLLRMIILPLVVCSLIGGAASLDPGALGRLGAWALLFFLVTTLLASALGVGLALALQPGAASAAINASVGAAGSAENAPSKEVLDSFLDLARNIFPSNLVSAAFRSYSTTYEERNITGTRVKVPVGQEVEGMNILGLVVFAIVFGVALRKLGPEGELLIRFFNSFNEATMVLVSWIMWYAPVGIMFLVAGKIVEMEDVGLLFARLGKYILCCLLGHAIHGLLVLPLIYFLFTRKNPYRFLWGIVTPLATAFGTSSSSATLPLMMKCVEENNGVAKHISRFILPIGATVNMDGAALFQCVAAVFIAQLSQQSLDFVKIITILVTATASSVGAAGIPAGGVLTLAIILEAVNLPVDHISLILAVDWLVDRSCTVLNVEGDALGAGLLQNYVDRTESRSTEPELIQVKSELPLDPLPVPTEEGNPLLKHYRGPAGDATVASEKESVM
Experimental: The cell lines HEK293 and Flp-In TREx 293 were cultured at 37° C. in a 5% CO2 environment, using Dulbecco's Modified Eagle Medium (DMEM) containing 10% fetal bovine serum (FBS), 100 units/ml Penicillin G and 100 μg/ml streptomycin (P/S). The cells were seeded in a Poly-D-lysine coated 24-well plate at 6×10^4 cells/well. After culturing for 3 days in DMEM Medium containing 10% FBS and P/S, the cell were used for transport activity measurement. Before transport activity measurement, the cells were washed with transport activity measurement buffer (PBS+1 g/L D-glucose) prewarmed to 37° C. and incubated for 10 minutes at 37° C. in 500 μL of buffer. The transport activity measurement was initiated by addition of D-[^3H]serine-containing transport activity buffer at the indicated concentration. The reaction product produced after addition was incubated at 37° C. for the indicated time. The reaction was suspended by removing the D-[^3H]serine-containing transport activity buffer, and the product was washed 3 times with thoroughly cooled transport activity buffer. […] Protein concentration of the cell lysate was measured by BCA protein assay. The lysate was mixed with 1 mL of Emulsifier Safe (PerkinElmer, MA, USA) and the radioactivity of the lysate was measured with a β-scintillation counter (LSC-8000, Hitachi). […]

[1] = tested on: Flp-In TREx 293 cell line; experiment: D-[3H]serine uptake in Flp-In TREx 293 cell line in the presence of inhibitors; assay type: cell-based; details: 10 minutes
Experimental: as §1

[2] = tested on: mouse brush border membrane vesicles (BBMV); experiment: D-[3H]serine transport activity measurement with mouse BBMVs; assay type: biochemical
Experimental: Total mouse kidneys were extracted by perfusion using PBS buffer at pH 7.4, and then immediately frozen with liquid nitrogen and stored at −80° C. until use. The frozen kidneys were resuspended in buffer containing 20 mM Tris-HCl at pH 7.6, 250 mM mannitol, 1 mM EDTA and Complete EDTA-free protease inhibitor cocktail (Roche, Switzerland), and crushed using a PHYSCOTRON (Microtec Co., Ltd.). The sample was then homogenized using a Potter-Elvehjem homogenizer. After centrifugation at 1,000×g for 5 minutes at 4° C., the supernatant was centrifuged at 3,000×g for 5 minutes at 4° C. After centrifugation, the supernatant was mixed with 1 M MgCl2 at a final concentration of 11 mM MgCl2, and incubated on ice for 20 minutes. This was followed by centrifugation at 3,000×g for 15 minutes at 4° C., and then ultracentrifugation of the supernatant containing crude membrane vesicles at 438,000×g for 30 minutes at 4° C. The pellet remaining after ultracentrifugation (BBMVs) was suspended in buffer containing 20 mM Tris-HCl at pH 7.6 and 250 mM mannitol. The BBMVs were quantified using a BCA protein quantitation kit (Thermo Fisher Scientific). The BBMVs were cryopreserved at −80° C. until use. Before transport activity measurement, the cryopreserved BBMVs were thawed to allow introduction of potassium into the BBMVs, after which they were ultracentrifuged at 438,000×g for 30 minutes at 4° C., and the pellet was then suspended in buffer containing 10 mM Tris-HCl at pH 7.6, 100 mM KCl and 100 mM mannitol to a 5 mg/mL protein concentration, and the BBMV suspension was incubated on ice overnight. Before measurement of the transport activity, valinomycin was added to the BBMV sample to a final concentration of 5 μM and the mixture was incubated at room temperature for 30 minutes. […] The used filter was melted with Clear-sol I (Nacalai Tesque, Inc.) and the radioactivity on the filter was measured using a β-scintillation counter (LSC-8000, Hitachi).

hSMCT2 = biological target: T2, hSMCT2 (Homo sapiens, UniProt Q1EHB4); experiment: D-[3H]serine uptake in FlpIn293TR-hSLC5A12-3×FLAG stable cell line; assay type: cell-based; details: 20 μM D-[3H]serine, 10 minutes
T2 construct: expressed in transfected cells
T2 sequence (Q1EHB4 1-618): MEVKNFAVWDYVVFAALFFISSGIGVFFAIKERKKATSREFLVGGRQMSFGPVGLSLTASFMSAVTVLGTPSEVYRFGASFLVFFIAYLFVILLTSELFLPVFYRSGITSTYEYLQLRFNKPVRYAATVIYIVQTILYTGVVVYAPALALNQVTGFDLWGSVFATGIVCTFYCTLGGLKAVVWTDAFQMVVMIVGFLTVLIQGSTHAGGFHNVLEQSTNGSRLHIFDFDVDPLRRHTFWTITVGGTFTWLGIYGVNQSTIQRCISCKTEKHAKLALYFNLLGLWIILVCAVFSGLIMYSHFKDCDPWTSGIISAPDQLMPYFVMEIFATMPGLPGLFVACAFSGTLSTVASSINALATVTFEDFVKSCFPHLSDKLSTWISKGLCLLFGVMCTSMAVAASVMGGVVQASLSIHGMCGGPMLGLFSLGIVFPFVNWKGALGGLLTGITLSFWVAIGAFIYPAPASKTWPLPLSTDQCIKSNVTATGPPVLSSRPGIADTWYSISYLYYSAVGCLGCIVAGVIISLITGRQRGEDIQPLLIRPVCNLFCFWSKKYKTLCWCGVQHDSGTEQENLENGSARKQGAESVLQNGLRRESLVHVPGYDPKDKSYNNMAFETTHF
Experimental: (§2) The stable cell line FlpIn293 TR was seeded in a poly-D-lysine-coated 24-well plate at 5×10^4 cells/well (Mock) or 6×10^4 cells/well (hSLC5A8 and hSLC5A12 cells), and after 24 hours, 1 mg/L doxycycline hyclate was added to induce recombinant gene expression. The cells were continuously cultured for 2 days and transport activity measurement was conducted at 80% to 90% confluence. In an ASCT2 knockdown experiment, the seeded cells were transfected after 12 hours with ASCT2 siRNA at 10 pmol/well, using Lipofectamine 3000. Before transport activity measurement, the cells were washed 3 times with transport activity buffer (PBS+1 g/L D-glucose) warmed to 37° C. and incubated for 10 minutes at 37° C. in 500 μL of buffer. The transport activity measurement was initiated by addition of D-[^3H]serine-containing transport activity buffer at the indicated concentration. The reaction product produced after addition was incubated at 37° C. for the indicated time. The reaction was suspended by removing the D-[^3H] serine-containing transport activity buffer, and the product was washed 3 times with thoroughly cooled transport activity buffer. […] Protein concentration of the cell lysate was measured by BCA protein assay. The lysate was mixed with 1 mL of Emulsifier Safe (PerkinElmer, MA, USA) and the radioactivity of the lysate was measured with a β-scintillation counter (LSC-8000, Hitachi). […]

hSMCT1 = biological target: T3, hSMCT1 (Homo sapiens, UniProt Q8N695); experiment: D-[3H]serine uptake in FlpIn293TR-hSLC5A8-3×FLAG stable cell line; assay type: cell-based; details: 20 μM D-[3H]serine, 10 minutes
T3 construct: A final pcDNA5-hSLC5A8_NM145913-3×FLAG positive clone was obtained and named “pcDNA5-hSLC5A8-3×FLAG”; expressed in transfected cells
T3 sequence (Q8N695 1-610): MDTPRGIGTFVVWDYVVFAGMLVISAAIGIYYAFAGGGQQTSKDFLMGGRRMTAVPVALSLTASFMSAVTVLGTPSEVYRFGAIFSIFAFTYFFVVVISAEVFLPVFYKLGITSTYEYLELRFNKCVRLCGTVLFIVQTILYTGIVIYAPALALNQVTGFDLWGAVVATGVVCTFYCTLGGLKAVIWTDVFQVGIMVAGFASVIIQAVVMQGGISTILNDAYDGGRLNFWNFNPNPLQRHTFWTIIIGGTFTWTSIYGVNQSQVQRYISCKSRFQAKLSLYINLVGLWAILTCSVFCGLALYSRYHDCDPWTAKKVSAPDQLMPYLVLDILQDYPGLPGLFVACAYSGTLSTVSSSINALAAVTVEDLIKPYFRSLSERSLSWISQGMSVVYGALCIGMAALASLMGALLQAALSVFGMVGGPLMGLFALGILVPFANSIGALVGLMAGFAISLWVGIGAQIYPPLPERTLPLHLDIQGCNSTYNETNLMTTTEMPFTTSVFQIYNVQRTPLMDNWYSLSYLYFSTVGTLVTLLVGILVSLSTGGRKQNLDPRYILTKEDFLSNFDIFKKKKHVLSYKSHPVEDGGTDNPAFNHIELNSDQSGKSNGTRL
Experimental: as §2

[3] = tested on: FlpIn293TR-hSLC5A12-3×FLAG (SMCT2)-stable cell line; experiment: Toxicity test (XTT) in SMCT2-stable cell line; assay type: cell-based; details: 500 μM ibuprofen added with D-serine to SMCT2 cells
Experimental: (§3) A toxicity test for stable cells was carried out using an FlpIn293TR-stable cell line. The cells were seeded in a poly-D-lysine-coated 96-well plate at 6.5×10^3 cells/well (Mock) and 8×10^3 cells/well (hSLC5A8 and hSLC5A12 cells), while in antibiotic-free DMEM+dialyzed FBS medium. After 24 hours, they were treated with L- or D-serine at different concentrations and 1 mg/L of doxycycline hyclate was added to induce recombination gene expression. For the ASCT2 knockdown experiment, the seeded cells were transfected after 12 hours with ASCT2 siRNA at 2 pmol/well, using Lipofectamine 3000. The effect of ibuprofen was analyzed by simultaneous addition with D-serine treatment. The cells were cultured for 2 days to 80% confluence. The proliferated cell count was determined by XTT measurement in the same manner as described above.

[4] = tested on: FlpIn293TR-hSLC5A8-3×FLAG (SMCT1)-stable cell line; experiment: Toxicity test (XTT) in SMCT1-stable cell line; assay type: cell-based; details: 500 μM ibuprofen added with D-serine to SMCT1 cells
Experimental: as §3

- [3H]D-serine transport (ASCT2): inhibited
Compound: NCCCC(=O)O [GABA, γ-aminobutyric acid]
- [3H]D-serine transport (HEK293 cells): inhibit

Compound: N[C@@H](CCC(=O)Nc1ccc([N+](=O)[O-])cc1)C(=O)O [GPNA, L-γ-glutamyl-p-nitroanilide]
- Uptake of D-[3H]serine [1]: inhibited

Compound: CSCC[C@H](N)C(=O)O [L-methionine]
- [3H]D-serine transport (HEK293 cells): inhibited
- Uptake of D-[3H]serine [1]: inhibited

Compound: C[C@@H](O)[C@H](N)C(=O)O [L-threonine]
- [3H]D-serine transport (HEK293 cells): inhibited
- Uptake of D-[3H]serine [1]: inhibited
- uptake activity inhibited ([2]; 2 mM L-threonine, 10 μM D-[3H]serine, measuring time 30 seconds): About 70%

- D-[3H]serine transport (hSMCT2): inhibited
- D-[3H]serine transport (hSMCT1): inhibited
Compound: CC(=O)Oc1ccccc1C(=O)O [acetylsalicylic acid]

- D-[3H]serine transport (hSMCT2): inhibited
- D-[3H]serine transport (hSMCT1): inhibited
Compound: CC(C)Cc1ccc(C(C)C(=O)O)cc1 (centres unmarked) [ibuprofen]
- effect of ibuprofen on D-serine effect on cell proliferation [3]: reduced the D-serine effect to the same level as the Mock cells
- D-[3H]serine transport activity ([2]; 1 and 3 mM ibuprofen, 50 μM D-[3H]serine, 1 minute): strongly inhibited
- effect of ibuprofen on D-serine effect on cell proliferation [4]: reduced the D-serine effect to the same level as the Mock cells

Compound: O=C(O)c1cccnc1 [nicotinic acid]
- Na+-dependent uptake inhibited ([2]; 1 mM nicotinic acid, 10 μM D-[3H]serine, measuring time 30 seconds): approximately 30%

Compound: S-benzyl-L-cystine [Benzyl-Cys]
- Uptake of D-[3H]serine [1]: inhibited
